Experimental data as given in patent publication US20080021026A1, “BENZOTHIOPHENE INHIBITORS OF RHO KINASE” (priority 2006, published 2008).

What was measured:
[1] = target: T1, recombinant N-terminal GST-tagged human Rho kinase 1 (ROCK1, amino acids 1-535) (Homo sapiens, UniProt Q13464); assay: In vitro Rho kinase assay (luciferase-based ATP consumption), ROCK1; type: biochemical; conditions: recombinant GST-tagged human ROCK1, luciferase-based ATP consumption; read-out: ROCK1 IC50
T1 construct: ROCK1, amino acids 1-535; purchased Invitrogen Inc. PV-3691
Method in brief: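 ATP depletion measured by firefly luciferase luminescence after 2 h at 30 °C, with inhibition raising signal and activity expressed relative to H-1152P. Reaction: 0.82 μg/ml recombinant GST-tagged ROCK1 (aa 1-535), S6 peptide 100 μg/ml, […], pH 7.5 Tris buffer.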

[2] = target: T2, recombinant N-terminal GST-tagged human Rho kinase 2 (ROCK2, amino acids 1-552) (Homo sapiens, UniProt O75116); assay: In vitro Rho kinase assay (luciferase-based ATP consumption), ROCK2; type: biochemical; conditions: recombinant GST-tagged human ROCK2, luciferase-based ATP consumption; read-out: ROCK2 IC50
T2 construct: ROCK2, amino acids 1-552; purchased Invitrogen Inc. PV3759
Method in brief: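 Luciferase-based luminescence of leftover ATP after 2 h at 30 °C, where inhibition raises signal, reports activity of GST-tagged ROCK2 (aa 1-552) at 0.82 μg/ml. Conditions: S6 peptide 100 μg/ml, […], pH 7.5 Tris buffer. Results given as percent of H-1152P control activity.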

T1 sequence (Q13464 1-535): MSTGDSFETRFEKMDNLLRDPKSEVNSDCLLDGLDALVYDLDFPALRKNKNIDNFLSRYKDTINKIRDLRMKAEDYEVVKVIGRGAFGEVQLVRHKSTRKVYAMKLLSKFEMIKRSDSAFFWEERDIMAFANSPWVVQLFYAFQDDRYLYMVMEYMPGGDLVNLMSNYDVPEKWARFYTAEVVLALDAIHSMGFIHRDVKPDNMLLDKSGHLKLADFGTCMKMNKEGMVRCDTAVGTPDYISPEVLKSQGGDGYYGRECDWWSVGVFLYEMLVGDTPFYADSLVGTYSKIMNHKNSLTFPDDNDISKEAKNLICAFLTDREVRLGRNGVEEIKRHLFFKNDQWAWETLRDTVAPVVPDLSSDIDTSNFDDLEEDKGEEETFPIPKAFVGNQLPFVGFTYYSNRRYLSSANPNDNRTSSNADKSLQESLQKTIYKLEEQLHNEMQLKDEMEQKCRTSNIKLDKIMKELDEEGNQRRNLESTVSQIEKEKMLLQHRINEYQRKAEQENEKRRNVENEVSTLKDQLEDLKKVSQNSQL
T2 sequence (O75116 1-552): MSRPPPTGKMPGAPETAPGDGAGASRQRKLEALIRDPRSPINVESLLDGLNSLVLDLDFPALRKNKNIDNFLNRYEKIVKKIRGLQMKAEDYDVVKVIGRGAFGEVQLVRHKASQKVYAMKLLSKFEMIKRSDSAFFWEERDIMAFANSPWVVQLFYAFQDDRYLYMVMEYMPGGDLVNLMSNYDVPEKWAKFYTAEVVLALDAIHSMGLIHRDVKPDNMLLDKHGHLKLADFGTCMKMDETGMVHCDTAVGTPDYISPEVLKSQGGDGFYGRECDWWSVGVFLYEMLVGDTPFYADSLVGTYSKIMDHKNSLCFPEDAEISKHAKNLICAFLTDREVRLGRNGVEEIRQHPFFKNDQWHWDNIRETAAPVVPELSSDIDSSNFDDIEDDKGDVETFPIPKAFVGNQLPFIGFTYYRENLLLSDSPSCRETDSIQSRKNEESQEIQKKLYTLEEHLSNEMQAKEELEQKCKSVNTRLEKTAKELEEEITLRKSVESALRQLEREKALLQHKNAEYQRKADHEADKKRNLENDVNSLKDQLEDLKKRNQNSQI

| IC50 [1] [µM] | IC50 [2] [µM] | SMILES |
| --- | --- | --- |
| > 5 | < 5 | Cc1c(-c2ccnc(N)n2)sc2ccc(CNC(=O)c3cc(F)c(F)cc3[N+](=O)[O-])cc12 [Example 272, Cc1c(sc2ccc(CNC(═O)c3cc(F)c(F)cc3[N+]([O−])═O)cc12)-c4ccnc(N)n4] |
| > 5 | < 5 | Cc1c(-c2ccnc(N)n2)sc2ccc(CNC(=O)c3ccc(Cl)cc3[N+](=O)[O-])cc12 [Example 267, Cc1c(sc2ccc(CNC(═O)c3ccc(Cl)cc3[N+]([O−])═O)cc12)-c4ccnc(N)n4] |
| < 5 | < 5 | Cc1c(-c2ccnc(N)n2)sc2ccc(CNC(=O)c3cc([N+](=O)[O-])ccc3F)cc12 [Example 229, Cc1c(sc2ccc(CNC(═O)c3cc(ccc3F)[N+]([O−])═O)cc12)-c4ccnc(N)n4] |
| > 5 | < 5 | Cc1c(-c2ccnc(N)n2)sc2ccc(CNC(=O)C3CCc4ccccc4C3)cc12 (stereo not drawn) [Example 199, Cc1c(sc2ccc(CNC(═O)C3CCc4ccccc4C3)cc12)-c5ccnc(N)n5] |
| < 5 | > 5 | Cc1c(-c2ccnc(N)n2)sc2ccc(CNC(=O)C(CC(C)C)NC(=O)OC(C)(C)C)cc12 (stereo not drawn) [Example 323, CC(C)C[C](NC(═O)OC(C)(C)C)C(═O)NCc1ccc2sc(c(C)c2c1)-c3ccnc(N)n3] |
| > 5 | < 5 | Cc1c(-c2ccnc(N)n2)sc2ccc(CNC(=O)c3ccccc3-c3ccccc3)cc12 [Example 261, Cc1c(sc2ccc(CNC(═O)c3ccccc3-c4ccccc4)cc12)-c5ccnc(N)n5] |
| < 5 | < 5 | Cc1c(-c2ccnc(N)n2)sc2ccc(CNC(=O)Cc3ccc4c(c3)OCO4)cc12 [Example 212, Cc1c(sc2ccc(CNC(═O)Cc3ccc4OCOc4c3)cc12)-c5ccnc(N)n5] |
| > 5 | < 5 | CC(=O)c1cccc(C(=O)NCc2ccc3sc(-c4ccnc(N)n4)c(C)c3c2)c1 [Example 164, CC(═O)c1cccc(c1)C(═O)NCc2ccc3sc(c(C)c3c2)-c4ccnc(N)n4] |
| > 5 | > 5 | Cc1cc(C)cc(C(=O)NCc2ccc3sc(-c4ccnc(N)n4)c(C)c3c2)c1 [Example 135, Cc1cc(C)cc(c1)C(═O)NCc2ccc3sc(c(C)c3c2)-c4ccnc(N)n4] |
| < 5 | < 5 | Cc1c(-c2ccnc(N)n2)sc2ccc(CNC(=O)c3ccc(C=O)cc3)cc12 [Example 130, Cc1c(sc2ccc(CNC(═O)c3ccc(C═O)cc3)cc12)-c4ccnc(N)n4] |
| > 5 | > 5 | CC(=O)NCc1ccc2sc(-c3ccnc(N)n3)c(C)c2c1 [Example 95, CC(═O)NCc1ccc2sc(c(C)c2c1)-c3ccnc(N)n3] |
| < 5 | < 5 | Cc1c(-c2ccnc(N)n2)sc2ccc(CNC(=O)c3ccc(C(C)(C)C)cc3)cc12 [Example 204, Cc1c(sc2ccc(CNC(═O)c3ccc(cc3)C(C)(C)C)cc12)-c4ccnc(N)n4] |
| < 5 | < 5 | Cc1c(-c2ccnc(N)n2)sc2ccc(CNC(=O)c3cc(F)ccc3[N+](=O)[O-])cc12 [Example 230, Cc1c(sc2ccc(CNC(═O)c3cc(F)ccc3[N+]([O−])═O)cc12)-c4ccnc(N)n4] |
| < 5 | > 5 | Cc1c(-c2ccnc(N)n2)sc2ccc(CNC(=O)C3Cc4ccccc4CN3C(=O)OC(C)(C)C)cc12 (stereo not drawn) [Example 327, Cc1c(sc2ccc(CNC(═O)[C]3Cc4ccccc4CN3C(═O)OC(C)(C)C)cc12)-c5ccnc(N)n5] |
| > 5 | < 5 | Cc1c(-c2ccnc(N)n2)sc2ccc(CNC(=O)c3cc(O)c(O)c(O)c3)cc12 [Example 185, Cc1c(sc2ccc(CNC(═O)c3cc(O)c(O)c(O)c3)cc12)-c4ccnc(N)n4] |
| > 5 | > 5 | Cc1c(-c2cc(N)ncn2)sc2ccc(Cl)cc12 [Example 8, 6-(5-Chloro-3-methylbenzo[b]thiophen-2-yl)pyrimidin-4-amine] |
| < 5 | < 5 | Nc1nccc(-c2sc3ccccc3c2Br)n1 [Example 15, 4-(3-Bromobenzo[b]thiophen-2-yl)pyrimidin-2-amine] |
| < 5 | < 5 | COc1ccc(C=CC(=O)NCc2ccc3sc(-c4ccnc(N)n4)c(C)c3c2)cc1O [Example 256, COc1ccc(C═CC(═O)NCc2ccc3sc(c(C)c3c2)-c4ccnc(N)n4)cc1O] |
| > 5 | < 5 | Cc1c(-c2ccnc(N)n2)sc2ccc(CNC(=O)c3ccc4ccccc4c3O)cc12 [Example 239, Cc1c(sc2ccc(CNC(═O)c3ccc4ccccc4c3O)cc12)-c5ccnc(N)n5] |

| IC50 [1] [µM] | IC50 [2] [µM] | SMILES |
| --- | --- | --- |
| > 5 | < 5 | Cc1c(-c2ccnc(N)n2)sc2ccc(CNC(=O)c3cccc(I)c3)cc12 [Example 320, Cc1c(sc2ccc(CNC(═O)c3cccc(I)c3)cc12)-c4ccnc(N)n4] |
| < 5 | < 5 | Cc1c(-c2ccnc(N)n2)sc2ccc(Cc3cccc(C(=O)O)c3)cc12 [Example 41, 3-((2-(2-Aminopyrimidin-4-yl)-3-methylbenzo[b]thiophen-5-yl)methyl)benzoic acid] |
| > 5 | < 5 | Cc1ccc(F)cc1C(=O)NCc1ccc2sc(-c3ccnc(N)n3)c(C)c2c1 [Example 146, Cc1ccc(F)cc1C(═O)NCc2ccc3sc(c(C)c3c2)-c4ccnc(N)n4] |
| > 5 | < 5 | COc1cc(C(=O)NCc2ccc3sc(-c4ccnc(N)n4)c(C)c3c2)c([N+](=O)[O-])cc1OC [Example 301, COc1cc(C(═O)NCc2ccc3sc(c(C)c3c2)-c4ccnc(N)n4)c(cc1OC)[N+]([O−])═O] |
| > 5 | < 5 | Cc1c(-c2ccnc(N)n2)sc2ccc(CNC(=O)c3ccccn3)cc12 [Example 111, Cc1c(sc2ccc(CNC(═O)c3ccccn3)cc12)-c4ccnc(N)n4] |
| < 5 | < 5 | Cc1c(-c2ccnc(N)n2)sc2ccc(CNC(=O)C(Cl)(Cl)Cl)cc12 [Example 160, Cc1c(sc2ccc(CNC(═O)C(Cl)(Cl)Cl)cc12)-c3ccnc(N)n3] |
| > 5 | > 5 | COc1ccc(Cc2ccc3sc(-c4ccnc(N)n4)c(C)c3c2)cc1 [Example 25, 4-(5-(4-Methoxybenzyl)-3-methylbenzo[b]thiophen-2-yl)pyrimidin-2-amine] |
| > 5 | < 5 | COc1ccc(C(=O)NCc2ccc3sc(-c4ccnc(N)n4)c(C)c3c2)c(O)c1 [Example 183, COc1ccc(C(═O)NCc2ccc3sc(c(C)c3c2)-c4ccnc(N)n4)c(O)c1] |
| < 5 | < 5 | Cc1c(-c2ccnc(N)n2)sc2ccc(Cc3cccc(C(=O)Nc4ccc(OCCN5CCCCC5)cc4)c3)cc12 [Example 44, 3-((2-(2-Aminopyrimidin-4-yl)-3-methylbenzo[b]thiophen-5-yl)methyl)-N-(4-(2-(piperidin-1-yl)ethoxy)phenyl)benzamide] |
| < 5 | < 5 | Cc1c(-c2ccnc(N)n2)sc2ccc(Cc3cccc(C(=O)N4CCN(C)CC4)c3)cc12 [Example 50, (3-((2-(2-Aminopyrimidin-4-yl)-3-methylbenzo[b]thiophen-5-yl)methyl)phenyl)(4-methylpiperazin-1-yl)methanone] |
| > 5 | > 5 | Cc1c(-c2ccnc(N)n2)sc2ccc(CNC(=O)CCc3ccccc3Br)cc12 [Example 303, Cc1c(sc2ccc(CNC(═O)CCc3ccccc3Br)cc12)-c4ccnc(N)n4] |
| < 5 | < 5 | CNc1nccc(Nc2ccc3sc(-c4ccnc(N)n4)c(C)c3c2)n1 [Example 76, N^4-(2-(2-Aminopyrimidin-4-yl)-3-methylbenzo[b]thiophen-5-yl)-N^2-methyl pyrimidine-2,4-diamine] |
| > 5 | < 5 | Cc1c(-c2ccnc(N)n2)sc2ccc(CNC(=O)c3ccc(-c4ccc(O)cc4)cc3)cc12 [Example 285, Cc1c(sc2ccc(CNC(═O)c3ccc(cc3)-c4ccc(O)cc4)cc12)-c5ccnc(N)n5] |
| < 5 | < 5 | Cc1c(-c2ccnc(N)n2)sc2ccc(Nc3cncc(C(=O)O)c3)cc12 [Example 71, 5-(2-(2-Aminopyrimidin-4-yl)-3-methylbenzo[b]thiophen-5-ylamino)nicotinic acid] |
| < 5 | < 5 | Cc1c(-c2ccnc(N)n2)sc2ccc(CNC(=O)Cc3ccc(O)c(Cl)c3)cc12 [Example 234, Cc1c(sc2ccc(CNC(═O)Cc3ccc(O)c(Cl)c3)cc12)-c4ccnc(N)n4] |
| < 5 | < 5 | Cc1c(-c2ccnc(N)n2)sc2ccc(N)cc12 [Example 72, 4-(5-Amino-3-methylbenzo[b]thiophen-2-yl)pyrimidin-2-amine] |
| > 5 | < 5 | Cc1ccccc1OCC(=O)NCc1ccc2sc(-c3ccnc(N)n3)c(C)c2c1 [Example 175, Cc1ccccc1OCC(═O)NCc2ccc3sc(c(C)c3c2)-c4ccnc(N)n4] |
| < 5 | < 5 | Nc1nccc(-c2cc3ccccc3s2)n1 [Example 2, 4-(Benzo[b]thiophen-2-yl)pyrimidin-2-amine] |
| > 5 | < 5 | Cc1c(-c2ccnc(N)n2)sc2ccc(CNC(=O)c3ccc(F)cc3F)cc12 [Example 155, Cc1c(sc2ccc(CNC(═O)c3ccc(F)cc3F)cc12)-c4ccnc(N)n4] |

| SMILES | IC50 [1] [µM] | IC50 [2] [µM] |
| --- | --- | --- |
| CC(=O)NC(Cc1ccc(O)cc1)C(=O)NCc1ccc2sc(-c3ccnc(N)n3)c(C)c2c1 (stereo not drawn) [Example 299, CC(═O)N[C](Cc1ccc(O)cc1)C(═O)NCc2ccc3sc(c(C)c3c2)-c4ccnc(N)n4] | > 5 | > 5 |
